The values below come from BindingDB's records for doi:10.7270/Q2ZC817P (The Scripps Research Institute Molecular Screening Center, 2007).

Sphingosine 1-phosphate receptor 1, sequence (P21453 whole entry): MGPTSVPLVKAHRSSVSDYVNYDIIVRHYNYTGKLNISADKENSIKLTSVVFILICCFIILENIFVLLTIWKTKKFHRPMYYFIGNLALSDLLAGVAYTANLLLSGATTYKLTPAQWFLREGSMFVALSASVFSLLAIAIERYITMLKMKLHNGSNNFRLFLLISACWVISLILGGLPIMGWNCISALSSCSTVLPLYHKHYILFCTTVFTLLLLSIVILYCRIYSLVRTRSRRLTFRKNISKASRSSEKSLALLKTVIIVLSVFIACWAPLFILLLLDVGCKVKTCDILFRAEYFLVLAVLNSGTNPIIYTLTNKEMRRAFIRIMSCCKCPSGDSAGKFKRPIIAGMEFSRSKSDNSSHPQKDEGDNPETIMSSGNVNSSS

The assay addresses Sphingosine 1-phosphate receptor 1 (Homo sapiens, UniProt P21453). The assay is described as follows: potentiators of S1P1 agonist response, dose response, cell-based, potentiator mode, 60K MLSMR set (AID 466).
As usually defined, the EC50 is the concentration needed to bring the measured effect to its halfway point. Regarding `Cn1c(C(=O)N2CCc3ccccc3C2)cc2oc3ccccc3c21` [2-(3,4-dihydroisoquinolin-2(1H)-ylcarbonyl)-1-methyl-1H-[1]benzofuro[3,2-b]pyrrole], the EC50 was more than 30000 nM. As to `Cc1ccc(C(C)C)c(OCc2ccc(-c3nnco3)cc2)c1` [2-[4-[(2-isopropyl-5-methyl-phenoxy)methyl]phenyl]-1,3,4-oxadiazole], the EC50 amounted to 1720 nM. For the compound `Cn1ncnc2c(=O)n(C)c(=O)nc1-2`, the EC50 worked out at 1730 nM. The value for `COc1cc(C(=O)N2CCN(S(=O)(=O)c3ccc(C)cc3)CC2)ccc1OCc1c(C)noc1C` [MLS000056221] was more than 95000 nM.
